The values that follow come from patent publication US11999737B2, “Kinase inhibitors and related methods of use” (Duke University, priority 2014, dated 2024).

One assay addresses GFP-ZIPK (Homo sapiens, UniProt O43293). The assay is described as follows: FLECS elution of GFP-ZIPK from γ-linked ATP Sepharose media. It counts as binding. To be noted: titration from ATP Sepharose.
A further assay concerns the target PIM3-GFP (Homo sapiens, UniProt Q86V86). The assay is described as follows: FLECS elution of PIM3-GFP from γ-linked ATP Sepharose media. It counts as binding. Particulars: titration from ATP Sepharose; calculated from EC50; read-out: apparent Kd, elution of PIM3-GFP.

pKd: −log10 of the molar value.

Chain of GFP-ZIPK (O43293 whole entry): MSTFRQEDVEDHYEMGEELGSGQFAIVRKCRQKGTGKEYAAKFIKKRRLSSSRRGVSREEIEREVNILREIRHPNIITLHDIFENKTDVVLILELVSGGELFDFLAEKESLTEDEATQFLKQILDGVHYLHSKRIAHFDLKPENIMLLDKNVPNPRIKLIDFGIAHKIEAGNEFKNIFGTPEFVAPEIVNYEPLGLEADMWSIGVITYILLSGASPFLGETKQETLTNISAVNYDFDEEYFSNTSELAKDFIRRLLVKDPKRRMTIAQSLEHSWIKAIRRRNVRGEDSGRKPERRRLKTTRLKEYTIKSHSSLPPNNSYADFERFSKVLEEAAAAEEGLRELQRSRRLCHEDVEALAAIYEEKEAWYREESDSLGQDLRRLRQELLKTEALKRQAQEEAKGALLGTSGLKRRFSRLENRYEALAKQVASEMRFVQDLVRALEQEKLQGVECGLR

For orientation: pKd means −log10 of the Kd, conventionally taken in molar units. For `O=S(=O)(c1cccc2c(I)cccc12)N1CCCNCC1` [ML-7, reference compound], the “elution of full length GFP-ZIPK” value on GFP-ZIPK is “failed to elute”. For the same molecule, the negative logarithm of the Kd (pKd) at PIM3-GFP is 6.70.
